Laboratory results reported in the Deep4Chem optical property database.

Test: solvent given as SMILES

## c12c3c4c5c1c1c6c7c2c2c8c3c3c9c4c4c%10c5c5c1c1c6c6c%11c%12c%13c%14c%15c%16c%17c%14c%14c%18c%13c%11c1c1c5c%10c5c(c%14c%10c%17c%11c%13c%16c%14c%16c%15c%12c%12c%16c(c2c7c%126)c2c8c3c(c%13c%142)c2c9c4c5c%10c%112)c%181
In CC1CCCCC1
  absorption maximum: 470 nm

## CN(C)c1ccc(/C=C/c2cccnn2)cc1
In C1CCOC1
  absorption maximum: 369 nm
In CC#N
  absorption maximum: 369 nm
In CS(C)=O
  absorption maximum: 380 nm
In ClCCl
  absorption maximum: 365 nm

## COc1ccc2cc(/C=C/c3nc(/C=C/c4ccc(N(c5ccccc5)c5ccccc5)cc4)cc(/C=C/c4ccc(N(c5ccccc5)c5ccccc5)cc4)n3)ccc2c1
In ClCCl
  absorption maximum: 424 nm

## N#CC(C#N)=Cc1cn(-c2ccccc2)nc1-c1ccccc1
In C1CCOC1
  absorption maximum: 354 nm
In C1COCCO1
  absorption maximum: 353 nm
In CCO
  absorption maximum: 354 nm
In CCOC(C)=O
  absorption maximum: 352 nm
In CN(C)C=O
  absorption maximum: 355 nm
In CO
  absorption maximum: 351 nm
In CS(C)=O
  absorption maximum: 356 nm
In Cc1ccccc1
  absorption maximum: 361 nm
In ClC(Cl)Cl
  absorption maximum: 359 nm
In ClCCl
  absorption maximum: 357 nm

## O=C1NC(=O)c2ccc3c4ccc5c6c(ccc(c7ccc1c2c73)c64)C(=O)N(c1ccc(Cl)cc1)C5=O
In CN(C)C=O
  absorption maximum: 526 nm

## Oc1cccc(O)c1-c1c2ccc(=[N+]3CCCCC3)cc-2oc2cc(N3CCCCC3)ccc12
In CCO
  absorption maximum: 557 nm

## COc1ccc(-n2nc(C#N)c(N3CCC(N4CCCCC4)CC3)n2)cc1
In CC#N
  absorption maximum: 325 nm

## CCN1C(=CC2=C([O-])C(=CC3=[N+](CC)c4ccccc4C3(C)C)C2=O)C(C)(C)c2ccccc21
In CO
  absorption maximum: 628 nm
In ClC(Cl)Cl
  absorption maximum: 635 nm
In ClCCl
  absorption maximum: 637 nm

## Cc1cccc2[n+]1[B-](c1ccccc1)(c1ccccc1)c1cccc3c4c5c(cccc5c-2c13)[B-](c1ccccc1)(c1ccccc1)[n+]1c(C)cccc1-4
In ClCCl
  absorption maximum: 542 nm

## CN(C)c1ccc2cc3c(cc2c1)OCCN=C3
In C1CCOC1
  absorption maximum: 353 nm
In CC#N
  absorption maximum: 456 nm
In CC(C)O
  absorption maximum: 362 nm
In CCOC(C)=O
  absorption maximum: 354 nm
In CN(C)C=O
  absorption maximum: 362 nm
In CS(C)=O
  absorption maximum: 359 nm
In Cc1ccccc1
  absorption maximum: 355 nm
In ClCCl
  absorption maximum: 450 nm
In O
  absorption maximum: 451 nm

## CC(C)(C)c1ccc2c(c1)c1cc(C(C)(C)C)ccc1n2-c1ccc2c(c1)C(=O)c1ccc(-n3c4ccc(C(C)(C)C)cc4c4cc(C(C)(C)C)ccc43)cc1C2=O
In Cc1ccccc1
  absorption maximum: 463 nm

## Cc1cc(C)c(B2c3cc(C(C)(C)C)ccc3-c3c(-c4ccccc4)ccc4cc(C(C)(C)C)cc2c34)c(C)c1
In C1CCCCC1
  absorption maximum: 406 nm

## COC(=O)c1cc(=O)n(C)c2cc(-c3ccccc3N(C)C)sc12
In CC#N
  absorption maximum: 402 nm
In ClCCl
  absorption maximum: 406 nm

## O=C(NCc1ccccc1)c1sc(-c2ccc(-c3cc(C4CC4)c(C(=O)NCc4ccccc4)s3)s2)cc1C1CC1
In ClCCl
  absorption maximum: 393 nm

## CC1(C)CCc2c(c3ccccc3c3nc4c(nc23)c2c(c3ccccc34)OC(C)(C)CC2)O1
In C1CCCCC1
  absorption maximum: 431.03 nm
In C1COCCO1
  absorption maximum: 434.97 nm
In CC#N
  absorption maximum: 434.97 nm
In CC(C)O
  absorption maximum: 431.97 nm
In CCCCCC
  absorption maximum: 429.92 nm
In ClC(Cl)Cl
  absorption maximum: 437.06 nm
In c1ccccc1
  absorption maximum: 434.97 nm

## CCCCCn1c2ccccc2c(=O)c2ccccc21
In CS(C)=O
  absorption maximum: 403 nm
In O
  absorption maximum: 394 nm

## CCOc1ccc2c(-c3nc(-c4ccccc4F)no3)cc(=O)oc2c1
In CCO
  absorption maximum: 345 nm
In ClC(Cl)Cl
  absorption maximum: 393 nm

## CCOC(=O)/C=C/c1cc2ccc(O)cc2oc1=O
In CCO
  absorption maximum: 367 nm

## N#Cc1c(N2CCCCC2)cc(-c2ccc3ccc4cccc5ccc2c3c45)c2c1-c1ccccc1C2=O
In C1CCOC1
  absorption maximum: 393 nm

## COc1ccc(-c2ccc(/C=C/c3cnc4ccccc4n3)cc2)cc1
In ClCCl
  absorption maximum: 379 nm

## Cc1ccc(-n2c(-c3ccccc3[NH-])[nH+]c3c4ccccc4c4ccccc4c32)cc1
In Cc1ccccc1
  absorption maximum: 363 nm

## CCC1=C(C)c2cc3ccccc3c(=O)n2C1=O
In CC#N
  absorption maximum: 369 nm
In CCCCCC
  absorption maximum: 366 nm
In CO
  absorption maximum: 370 nm
In CS(C)=O
  absorption maximum: 373 nm
In ClC(Cl)Cl
  absorption maximum: 371 nm

## C1=C(c2ccccc2)C=C(c2ccccc2)/C1=C/c1ccccc1
In C1CCOC1
  absorption maximum: 438 nm

## COc1ccc(-c2cc3c(ccc4sccc43)s2)cc1
In ClCCl
  absorption maximum: 333 nm

## COC(=O)C1=C(C(=O)OC)C2(c3ccccc3-c3c(C(=O)OC)cccc32)[C@@H](c2ccc(Cl)cc2)C=C2c3cc(OC)c(OC)cc3CCN21 (stereo not given in full)
In ClCCl
  absorption maximum: 311 nm

## Cc1ccc2nc3cc4c(cc3c(-c3ccccc3)c2c1)[Si](C)(C)O[Si]4(C)C
In ClCCl
  absorption maximum: 370 nm

## CCCCn1c2ccccc2c2ccc3c4cc(-c5cccc(F)c5)ccc4n(CCCC)c3c21
In ClC(Cl)Cl
  absorption maximum: 328 nm

## CN(C)c1ccc(/C=C/c2ccc([N+](=O)[O-])c(O)c2)cc1
In C1COCCO1
  absorption maximum: 448 nm

## c1ccc2c(-c3nc4sc5ccccc5c4s3)cccc2c1
In CS(C)=O
  absorption maximum: 350 nm

## CCCCC(CC)COc1ccc2nc(-c3ccc(-c4ccc(N(C)C)cc4)s3)sc2c1 (stereo not given)
In ClCCl
  absorption maximum: 402 nm

## CCCCCCCCN1c2ccc(C#Cc3ccc(C(F)(F)F)cc3)cc2Sc2cc(C=O)ccc21
In C1CCOC1
  absorption maximum: 384.01 nm
In CC#N
  absorption maximum: 380 nm
In CCCCCC
  absorption maximum: 376.01 nm
In CO
  absorption maximum: 362 nm
In CS(C)=O
  absorption maximum: 389.99 nm
In Cc1ccccc1
  absorption maximum: 381.99 nm
In ClC(Cl)Cl
  absorption maximum: 389.99 nm

## CC(C)=C(C)C
In CCCCCCC
  absorption maximum: 196 nm

## N#Cc1c(-n2c3ccc(Br)cc3c3cc(Br)ccc32)c(-n2c3ccc(Br)cc3c3cc(Br)ccc32)c(C#N)c(-n2c3ccc(Br)cc3c3cc(Br)ccc32)c1-n1c2ccc(Br)cc2c2cc(Br)ccc21
In Cc1ccccc1
  absorption maximum: 339 nm

## COc1cc(C2=c3c(c4ccc(C(C)(C)C)cc4c4cc(C(C)(C)C)ccc34)=[N+]3C2=Nc2c(-c4cc(OC)c(OC)c(OC)c4)c4c5ccc(C(C)(C)C)cc5c5cc(C(C)(C)C)ccc5c4n2[B-]3(F)F)cc(OC)c1OC
In Cc1ccccc1
  absorption maximum: 787 nm

## COc1cccc(OC)c1-c1c2ccc(=[N+]3CCCCC3)cc-2oc2cc(N3CCCCC3)ccc12
In ClCCl
  absorption maximum: 565 nm

## c1ccc2nc3cccc(-c4ccc(-n5c6ccccc6c6ccccc65)cc4)c3cc2c1
In C1CCOC1
  absorption maximum: 359 nm
In CC#N
  absorption maximum: 358 nm
In CC(C)=O
  absorption maximum: 358 nm
In CC(C)OC(C)C
  absorption maximum: 359 nm
In CCCCCC
  absorption maximum: 359 nm
In CCCCOCCCC
  absorption maximum: 359 nm
In CCOC(C)=O
  absorption maximum: 359 nm
In CCOCC
  absorption maximum: 358 nm

## O=C(O)C1=C/C(=C/C=[NH+]/c2ccc3c(C(F)(F)F)cc(=O)oc3c2)CC(C(=O)O)N1 (stereo not given)
In O
  absorption maximum: 519 nm

## COc1ccc2c(c1)SCC1=C(c3ccccc3)C3=Nc4c(-c5ccccc5)c5c(n4[B-](F)(F)[N+]3=C12)-c1ccc(OC)cc1SC5
In ClC(Cl)Cl
  absorption maximum: 706 nm

## COC(=O)c1ccc(/C=C2\C=C(c3ccccc3)NC2=O)cc1
In C1COCCO1
  absorption maximum: 437 nm

## CC(C)(C)c1ccc(N(c2ccccc2)c2ccc3ccc4c(N(c5ccccc5)c5ccc(C(C)(C)C)cc5)ccc5ccc2c3c54)cc1
In ClCCl
  absorption maximum: 428 nm

## COCCOCCOCCOCC(COCCOCCOCCOC)Oc1cc(/C=C/c2ccc(/C=C/[N+](=O)[O-])cc2)c(OC(COCCOCCOCCOC)COCCOCCOCCOC)cc1/C=C/c1ccc(/C=C/[N+](=O)[O-])cc1
In ClCCl
  absorption maximum: 447 nm

## CCCCCCC1(CCCCCC)c2cc(-c3nc(-c4ccc5c(c4)C(CCCCCC)(CCCCCC)c4cc(-n6c7ccc(C(C)(C)C)cc7c7cc(C(C)(C)C)ccc76)ccc4-5)nc(-c4ccc5c(c4)C(CCCCCC)(CCCCCC)c4cc(-n6c7ccc(C(C)(C)C)cc7c7cc(C(C)(C)C)ccc76)ccc4-5)n3)ccc2-c2ccc(-n3c4ccc(C(C)(C)C)cc4c4cc(C(C)(C)C)ccc43)cc21
In C1CCOC1
  absorption maximum: 382 nm

## COc1ccc2c(c1)SC1=Nc3sc4cc(OC)ccc4[n+]3CN12
In CO
  absorption maximum: 405 nm

## CCCCCCCCCCCCc1ccc(-c2cc(C)[o+]c(C)c2)cc1
In CC#N
  absorption maximum: 350 nm
In ClCCl
  absorption maximum: 370 nm

## F[B-]1(F)n2c(nc3c4ccccc4c4ccccc4c32)-c2cccc[n+]21
In CC#N
  absorption maximum: 403 nm
In CCCCCC
  absorption maximum: 447 nm
In CO
  absorption maximum: 404 nm
In ClC(Cl)Cl
  absorption maximum: 430 nm
In ClCCl
  absorption maximum: 421 nm

## CCCCC(CC)Cn1c2cc(C#N)ccc2c2cc(-c3ccc(N(c4ccccc4)c4ccccc4)cc3)c(C#N)cc21 (stereo not given)
In ClCCl
  absorption maximum: 398 nm

## Cc1cc(C)c2nc3c(=O)[nH]c(=O)[nH]c3nc2c1
In CC#N
  absorption maximum: 350 nm

## CCc1c(C)c2n(c1C)[B-](F)(F)[N+]1=C(C=C3C=Cc4ccccc43)C=CC1=C2C
In C1CCCCC1
  absorption maximum: 591 nm

## COC(=O)CCC1=CC(C#Cc2cccs2)=[N+]2C1=Cc1c(CCC(=O)OC)cc(C#Cc3cccs3)n1[B-]2(F)F
In ClCCl
  absorption maximum: 649 nm

## CC(C)[Si](C#Cc1ccc(C#C[Si](C(C)C)(C(C)C)C(C)C)c2nc3ccccc3nc12)(C(C)C)C(C)C
In CCCCCC
  absorption maximum: 440 nm
In ClCCl
  absorption maximum: 439 nm

## CN(C)c1cc2oc3cc(N(C)C)c(F)cc3c(=O)c2cc1F
In CCO
  absorption maximum: 378 nm

## Cc1ccc(-c2cnc3nn4ccccc4c3n2)cc1
In C1CCOC1
  absorption maximum: 400 nm

## COC(=O)c1cc(=O)n(C)c2cc(-c3cc(OC)c(OC)c(OC)c3)sc12
In CC#N
  absorption maximum: 398 nm
In ClCCl
  absorption maximum: 400 nm

## O=C(O)CC[N+]1=c2cc3c(cc2CCC1)=Cc1c(c2cc4c5c(c2oc1=O)CCCN5CCC4)O3
In CC#N
  absorption maximum: 619 nm
In CO
  absorption maximum: 617 nm
In ClCCl
  absorption maximum: 637 nm
In O
  absorption maximum: 608 nm

## CCCN1/C(=C/C=C/C=C/C2=[N+](CCC)c3ccccc3C2(C)C)C(C)(C)c2ccccc21
In CO
  absorption maximum: 637 nm
In CS(C)=O
  absorption maximum: 645 nm
In O
  absorption maximum: 633 nm

## CC(C)(C)c1ccc(-c2cc(-c3ccc(-c4cc(-c5ccc(C(C)(C)C)cc5)c(C(=O)N5CCOCC5)s4)s3)sc2C(=O)N2CCOCC2)cc1
In ClCCl
  absorption maximum: 377 nm

## CN1/C(=C/C=C(/C=C/c2sc3ccccc3[n+]2C)c2cc(F)cc(F)c2)Sc2ccccc21
In CCO
  absorption maximum: 644 nm
In CO
  absorption maximum: 641 nm
In CS(C)=O
  absorption maximum: 651 nm
In O
  absorption maximum: 638 nm
